Laboratory results published in patent US9284335B2, “Substituted pyrido[3,2-e][1,2,4]triazolo[1,5-c]pyrimidines, pyrido[2,3-e][1,2,4]triazolo[1,5-c]pyrimidines and/or [1,2,4]triazolo[1,5-c]pteridines for treatment of central nervous system diseases and disorders” (DART NEUROSCIENCE (CAYMAN) LTD., priority 2012, dated 2016).

Tested on: NS1 cells
Assay: Neurite outgrowth (NOG) assay
Assay type: cell-based
Description: Neuroscreen 1 (NS1) Cells (Cellomics Inc.) were cultured on collagen type I coated 75 cm2 plastic flasks (Biocoat, Becton Dickinson) in a humidified incubator at 37° C. in 5% CO2. Cells were cultured in RPMI complete cell culture medium (Cambrex) supplemented with 10% heat-inactivated horse serum (Invitrogen), 5% heat-inactivated fetal bovine serum (Cellgro), and 2 mM L-glutamine (Cambrex). For expansion, the cells were trypsinized and split at 80% confluence. Cell culture media was changed every 2 to 3 days.
NS1 cells were harvested and counted using a Coulter counter (Becton Dickinson Coulter Z1). Cells were seeded in 96-well collagen I coated plates at a density of 2000 cells per well in volume of 200 μl. RPMI media was supplemented with 200 ng/ml nerve growth factor (NGF, Sigma). NS1 cells were incubated for 72 hours to allow differentiation to a neuronal phenotype. […]
Antibody-stained 96-well plates were stored at 4° C. in the dark until scanning. […] The neurite outgrowth assay is based on two channels to scanning: (1) Channel 1, which detects the Hoechst Dye and is used by the software to identify cells and for automated focusing; and (2) Channel 2, which detects the FITC fluorescence of the secondary antibody and is used by the software to calculate all data generated in reference to neurites. […]

## COc1ccc(C2CNC(=O)C2)cc1OC1CCCC1 (centres unmarked) [Rolipram]
In combination with forskolin
  neurite length and branching / neurite outgrowth: enhanced in dose-dependent manner
Without forskolin
  neurite length and branching / neurite outgrowth: not affected
